According to patent publication US20130296250A1, “METHOD FOR TREATMENT OF PSORIASIS” (priority 2011, published 2013):
The star is where a group is joined. Myristoyl = CCCCCCCCCCCCCC(=O)*

Experiments:
[1] = test system: Keratinocytes derived from newborn C57BL/6 mice skin; test: Cytokine secretion in LPS activated keratinocytes, Luminex; assay type: cell-based; details: peptide inhibitors, FIGS. 19 to 23
Text: Resident skin cells and immunological cells (both resident and infiltrating cells) interact in the inflammatory psoriatic process by cell-cell interactions and cytokine secretion. Thus, HO/02/10 was examined for its direct effect on the secretion of pro-inflammatory, chemoattractant and immunological pathway related cytokines form both keratinocytes and immune cells such as macrophages and dendritic cells.
The results of FIGS. 17A and 17B show the effect of HO/02/10 on cytokine secretion in keratinocytes. Keratinocytes were derived from newborn C57BL/6 mice skin. The cells were incubated for 5 days in 24 wells plates. Cells were then treated with DPBS−/−, LPS (100 ng/ml), or HO/02/10 (1 μg/ml)+LPS ([…]). Medium containing secreted cytokines was collected after 48 hr and analyzed using a Luminex system.

[2] = test system: TNFα activated keratinocytes; test: Cytokine secretion in TNFα activated keratinocytes; assay type: cell-based; details: peptide inhibitors, FIGS. 19 to 23
[3] = test system: IL-17A activated keratinocytes; test: Cytokine secretion in IL-17A activated keratinocytes; assay type: cell-based; details: peptide inhibitors, FIGS. 24 to 27
C57BL/6J mouse [4] = test: Macrophage infiltration in wound, Iba-1 staining; assay type: in vivo; details: daily treatment, five days post-wounding
Procedure: The effect of MPDY-1 on macrophage infiltration was also shown by Iba-1 staining. Iba-1 is a general marker for macrophages. […] As above, a two-cm longitudinal incision was done on the upper back of a C57BL/6J mouse. Following wounding, a sterile pad was sutured to the mouse's skin. Animals were treated daily with MPDY-1 (n=6). Five days post-wounding, when inflammatory phase reaches its peak, the mice were sacrificed, skin tissues were embedded in paraffin and immunohistochemical staining was performed utilizing anti-Iba-1 antibodies.

C57BL/6J mouse [5] = test: Macrophage activation in wound, MAC-2 staining; assay type: in vivo; details: daily treatment, 5 days; 1, 10 and 100 micrograms per mL
Procedure: The effect of MPDY-1 on macrophage activation was also shown by MAC-2 staining. MAC-2 is a specific marker for activated macrophages. […] A two-cm longitudinal incision was done as described above. Animals were treated daily with DPBS^−/− (Control) or MPDY-1 in the specified concentrations (n=6). After 5 days immunohistochemical staining was performed utilizing anti-MAC-2 antibodies. Bar […]. (*p(control Vs. MPDY-1 10 μg)=0.0028).

## H-Phe-Ala-Arg-Lys-Gly-Ala-Leu-Arg-Gln-OH-acetate salt (H-FARKGALRQ-OH; also: acetate salt) [PDY-1]
[1]
  cytokine secretion from LPS activated keratinocytes: decrease cytokine secretion
[2]
  cytokine secretion from TNFα activated keratinocytes: decrease cytokine secretion
[3]
  cytokine secretion from IL-17A activated keratinocytes: decrease cytokine secretion

## Myristoyl-Phe-Ala-Arg-Lys-Gly-Ala-Leu-OH (Myristoyl-FARKGAL-OH; SMILES CCCCCCCCCCCCCC(=O)N[C@@H](Cc1ccccc1)C(=O)N[C@@H](C)C(=O)N[C@@H](CCCNC(=N)N)C(=O)N[C@@H](CCCCN)C(=O)NCC(=O)N[C@@H](C)C(=O)N[C@@H](CC(C)C)C(=O)O) [MPDY-1 sh]
[1]
  cytokine secretion from LPS activated keratinocytes: decrease cytokine secretion
[2]
  cytokine secretion from TNFα activated keratinocytes: decrease cytokine secretion
[3]
  cytokine secretion from IL-17A activated keratinocytes: decrease cytokine secretion

## Myristoyl-Phe-Ala-Arg-Lys-Gly-Ala-Leu-Arg-Gln-OH (Myristoyl-FARKGALRQ-OH; SMILES CCCCCCCCCCCCCC(=O)N[C@@H](Cc1ccccc1)C(=O)N[C@@H](C)C(=O)N[C@@H](CCCNC(=N)N)C(=O)N[C@@H](CCCCN)C(=O)NCC(=O)N[C@@H](C)C(=O)N[C@@H](CC(C)C)C(=O)N[C@@H](CCCNC(=N)N)C(=O)N[C@@H](CCC(N)=O)C(=O)O) [MPDY-1]
C57BL/6J mouse [4]
  macrophage infiltration (Iba-1 positive cells per field): dose dependent effect
C57BL/6J mouse [5]
  activation of macrophages (MAC-2 positive cells per field): significantly inhibited
[1]
  cytokine secretion from LPS activated keratinocytes: decrease cytokine secretion
[2]
  cytokine secretion from TNFα activated keratinocytes: decrease cytokine secretion
[3]
  cytokine secretion from IL-17A activated keratinocytes: decrease cytokine secretion
